# Biological target: T1, DGAT1 (Homo sapiens, UniProt O75907)
# T1 construct: host or cells: HepG2 cell homogenate (supernatant after sonication and 2000×g centrifugation)
# T1 sequence (O75907 1-488): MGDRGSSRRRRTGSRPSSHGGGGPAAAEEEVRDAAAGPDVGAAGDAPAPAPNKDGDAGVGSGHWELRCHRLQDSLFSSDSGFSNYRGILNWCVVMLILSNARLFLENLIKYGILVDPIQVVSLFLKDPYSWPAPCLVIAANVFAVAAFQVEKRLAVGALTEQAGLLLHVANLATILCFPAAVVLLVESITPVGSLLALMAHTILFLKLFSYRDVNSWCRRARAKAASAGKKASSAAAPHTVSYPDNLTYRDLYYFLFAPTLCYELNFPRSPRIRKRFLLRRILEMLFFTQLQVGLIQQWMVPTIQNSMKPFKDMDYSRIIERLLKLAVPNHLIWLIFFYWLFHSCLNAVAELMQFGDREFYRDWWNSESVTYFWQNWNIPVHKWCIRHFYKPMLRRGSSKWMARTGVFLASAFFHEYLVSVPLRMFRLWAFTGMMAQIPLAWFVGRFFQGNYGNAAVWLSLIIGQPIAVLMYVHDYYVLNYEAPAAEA
# Experiment: Assay for inhibition of DGAT1 activity (IC50), in vitro enzymatic assay using homogenates of HepG2 cell line
# Assay type: biochemical
# Conditions: inhibitory activity against DGAT1; HepG2 protein (25 μg), 1,2-dioleoyl-sn-glycerol (30 μM), 14C oleoyl coenzyme A (10 μM), room temperature, 60 mins
# Protocol: In order to identify DGAT1 inhibitors, in vitro enzymatic assays were performed by using homogenates of HepG2 cell line (ATCC, USA, HB-8065). Briefly stated, HepG2 cells were inoculated in 10% FBS-supplemented medium at 1.0×10^7 cells/well, cultured at 37° C., and harvested 72 hrs later. The harvested cells were lysed by ultrasonic treatment, and centrifuged for at 4° C. (2000×g, 10 mins) to remove any uncracked cells and impurities. The supernatant thus formed was obtained, and stored at −70° C. after its protein contents were quantitatively analyzed.
# DGAT1 activation was assayed by a modification of the method described by Coleman (Methods in Enzymology, 1992, 209, 98-102). The compound of the present invention ([…]) was incubated with HepG2 protein (25 μg), MgCl2 (150 mM) and 1,2-dioleoyl-sn-glycerol (30 μM) in a total assay volume of 200 μL in plastic tubes.
# The reaction was started by adding ^14C oleoyl coenzyme A (10 μM final concentration) and incubated at room temperature for 60 mins. The reaction was ended when a mixed solution (300 μL) of 2-propanol and heptane (7:1) was added thereto. Radioactive triolein product was separated into the organic phase by adding heptane (200 μL) and 1.0 M carbonate buffer (200 μL, pH 9.5). DGAT1 activity was quantified by counting aliquots of the upper heptane layer by liquid […].
row,IC50,SMILES
1,< 5 nM,"O=C(O)Cc1ccc(-c2csc3c(-c4ccc(NC(=O)Nc5ccccc5)cc4)ncnc23)cc1 [Example 1, 2-(4-(4-(4-(3-phenylureido)phenyl)thieno[3,2-d]pyrimidin-7-yl)phenyl)acetic acid]"
2,< 1 nM,"O=C(O)Cc1ccc(-c2csc3c(-c4ccc(NC(=O)Nc5cccc(Cl)c5)cc4)ncnc23)cc1 [Example 2, 2-(4-(4-(4-(3-(3-chlorophenyl)ureido)phenyl)thieno[3,2-d]pyrimidin-7-yl)phenyl)acetic acid]"
3,< 1 nM,"O=C(Nc1ccc(-c2ncnc3c(-c4ccc(C(=O)O)cc4)csc23)cc1)Nc1cccc(Cl)c1 [Example 3, 4-(4-(4-(3-(3-chlorophenyl)ureido)phenyl)thieno[3,2-d]pyrimidin-7-yl)benzoic acid]"
4,< 1 nM,"O=C(O)Cc1ccc(-c2csc3c(-c4ccc(NC(=O)Nc5ccc(F)c(F)c5)cc4)ncnc23)cc1 [Example 4, 2-(4-(4-(4-(3-(3,4-difluorophenyl)ureido)phenyl)thieno[3,2-d]pyrimidin-7-yl)phenyl)acetic acid]"
5,< 1 nM,"O=C(O)CCc1ccc(-c2csc3c(-c4ccc(NC(=O)Nc5cccc(Cl)c5)cc4)ncnc23)cc1 [Example 7, 3-(4-(4-(4-(3-(3-chlorophenyl)ureido)phenyl)thieno[3,2-d]pyrimidin-7-yl)phenyl)propanoic acid]"
6,< 5 nM,"O=C(O)CCc1ccc(-c2csc3c(-c4ccc(NC(=O)Nc5ccc(F)c(F)c5)cc4)ncnc23)cc1 [Example 14, 3-(4-(4-(4-(3-(3,4-difluorophenyl)ureido)phenyl)thieno[3,2-d]pyrimidin-7-yl)phenyl)propanoic acid]"
7,< 5 nM,"COc1ccc(NC(=O)Nc2ccc(-c3ncnc4c(-c5ccc(CCC(=O)O)cc5)csc34)cc2)cc1 [Example 15, 3-(4-(4-(4-(3-(4-methoxyphenyl)ureido)phenyl)thieno[3,2-d]pyrimidin-7-yl)phenyl)propanoic acid]"
8,< 1 nM,"O=C(O)Cc1ccc(-c2csc3c(-c4ccc(NC(=O)NC5CCCCC5)cc4)ncnc23)cc1 [Example 16, 2-(4-(4-(4-(3-cyclohexylureido)phenyl)thieno[3,2-d]pyrimidin-7-yl)phenyl)acetic acid]"
9,< 5 nM,"COc1ccccc1NC(=O)Nc1ccc(-c2ncnc3c(-c4ccc(CCC(=O)O)cc4)csc23)cc1 [Example 20, 3-(4-(4-(4-(3-(2-methoxyphenyl)ureido)phenyl)thieno[3,2-d]pyrimidin-7-yl)phenyl)propanoic acid]"
10,< 1 nM,"Cc1ccc(NC(=O)Nc2ccc(-c3ncnc4c(-c5ccc(CCC(=O)O)cc5)csc34)cc2)cc1 [Example 21, 3-(4-(4-(4-(3-p-tolylureido)phenyl)thieno[3,2-d]pyrimidin-7-yl)phenyl)propanoic acid]"
11,< 5 nM,"COc1cc(NC(=O)Nc2ccc(-c3ncnc4c(-c5ccc(CCC(=O)O)cc5)csc34)cc2)cc(OC)c1OC [Example 24, 3-(4-(4-(4-(3-(3,4,5-trimethoxyphenyl)ureido)phenyl)thieno[3,2-d]pyrimidin-7-yl)phenyl)propanoic acid]"
12,< 5 nM,"NC(=O)CCc1ccc(-c2csc3c(-c4ccc(NC(=O)Nc5cccc(Cl)c5)cc4)ncnc23)cc1 [Example 28, 3-(4-(4-(4-(3-(3-chlorophenyl)ureido)phenyl)thieno[3,2-d]pyrimidin-7-yl)phenyl)propanamide]"
13,< 1 nM,"O=C(O)CCc1ccc(-c2csc3c(-c4ccc(NC(=O)Nc5cccc(Cl)c5)cc4)ncnc23)cc1F [Example 30, 3-(4-(4-(4-(3-(3-chlorophenyl)ureido)phenyl)thieno[3,2-d]pyrimidin-7-yl)-2-fluorophenyl)propanoic acid]"
14,< 10 nM,"CS(=O)(=O)c1ccc(-c2csc3c(-c4ccc(NC(=O)Nc5cccc(Cl)c5)cc4)ncnc23)cc1 [Example 31, 1-(3-chlorophenyl)-3-(4-(7-(4-(methylsulfon)phenyl)thieno[3,2-d]pyrimidin-4-yl)phenyl)urea]"
15,< 10 nM,"O=C(O)Cc1ccc(-c2csc3c(-c4ccc(NC(=O)Nc5ccnc(Cl)c5)cc4)ncnc23)cc1 [Example 34, 2-(4-(4-(4-(3-(2-chloropyridin-4-yl)ureido)phenyl)thieno[3,2-d]pyrimidin-7-yl)phenyl)acetic acid]"
16,< 10 nM,"CN(C)c1ccc(NC(=O)Nc2ccc(-c3ncnc4c(-c5ccc(CC(=O)O)cc5)csc34)cc2)cc1 [Example 35, 2-(4-(4-(4-(3-(4-(dimethylamino)phenyl)ureido)phenyl)thieno[3,2-d]pyrimidin-7-yl)phenyl)acetic acid]"
17,< 1 nM,"O=C(O)CCc1ccc(-c2csc3c(-c4ccc(NC(=O)Nc5cccc(F)c5)cc4)ncnc23)cc1 [Example 39, 3-(4-(4-(4-(3-(3-fluorophenyl)ureido)phenyl)thieno[3,2-d]pyrimidin-7-yl)phenyl)propanoic acid]"
18,< 1 nM,"CN(C)c1ccc(NC(=O)Nc2ccc(-c3ncnc4c(-c5ccc(CCC(=O)O)cc5)csc34)cc2)cc1 [Example 40, 3-(4-(4-(4-(3-(4-(dimethylamino)phenyl)ureido)phenyl)thieno[3,2-d]pyrimidin-7-yl)phenyl)propanoic acid]"
19,< 5 nM,"O=C(O)CCc1ccc(-c2csc3c(-c4ccc(NC(=O)Nc5cc(Cl)ccn5)cc4)ncnc23)cc1 [Example 42, 3-(4-(4-(4-(3-(4-chloropyridin-2-yl)ureido)phenyl)thieno[3,2-d]pyrimidin-7-yl)phenyl)propanoic acid]"
20,< 10 nM,"O=C(O)CCc1ccc(-c2csc3c(-c4ccc(NC(=O)Nc5ccc(N6CCOCC6)cc5)cc4)ncnc23)cc1 [Example 44, 3-(4-(4-(4-(3-(4-morpholinophenyl)ureido)phenyl)thieno[3,2-d]pyrimidin-7-yl)phenyl)propanoic acid]"
21,< 5 nM,"COc1ccc(Cl)c(NC(=O)Nc2ccc(-c3ncnc4c(-c5ccc(CCC(=O)O)cc5)csc34)cc2)c1 [Example 46, 3-(4-(4-(4-(3-(2-chloro-5-methoxyphenyl)ureido)phenyl)thieno[3,2-d]pyrimidin-7-yl)phenyl)propanoic acid]"
22,< 1 nM,"O=C(O)CCc1ccc(-c2csc3c(-c4ccc(NC(=O)Nc5ccc(-c6nn[nH]n6)cc5)cc4)ncnc23)cc1 [Example 49, 3-(4-(4-(4-(3-(4-(2H-tetrazol-5-yl)phenyl)ureido)phenyl)thieno[3,2-d]pyrimidin-7-yl)phenyl)propanoic acid]"
23,< 20 nM,"CN1CCN(c2ccc(NC(=O)Nc3ccc(-c4ncnc5c(-c6ccc(CCC(=O)O)cc6)csc45)cc3)cc2)CC1 [Example 50, 3-(4-(4-(4-(3-(4-(4-methylpiperazin-1-yl)phenyl)ureido)phenyl)thieno[3,2-d]pyrimidin-7-yl)phenyl)propanoic acid]"
24,< 1 nM,"CN1CCC(NC(=O)Nc2ccc(-c3ncnc4c(-c5ccc(CCC(=O)O)cc5)csc34)cc2)CC1 [Example 51, 3-(4-(4-(4-(3-(1-methylpiperidin-4-yl)ureido)phenyl)thieno[3,2-d]pyrimidin-7-yl)phenyl)propanoic acid]"
25,< 1 nM,"O=C(O)CCc1ccc(-c2csc3c(-c4ccc(NC(=O)Nc5ccc(N6CCCC6)cc5)cc4)ncnc23)cc1 [Example 52, 3-(4-(4-(4-(3-(4-(pyrrolidin-1-yl)phenyl)ureido)phenyl)thieno[3,2-d]pyrimidin-7-yl)phenyl)propanoic acid]"
26,< 50 nM,"O=C(O)CCc1ccc(-c2csc3c(-c4ccc(NC(=O)Nc5ccc(-n6cnnc6)cc5)cc4)ncnc23)cc1 [Example 53, 3-(4-(4-(4-(3-(4-(4H-1,2,4-triazol-4-yl)phenyl)ureido)phenyl)thieno[3,2-d]pyrimidin-7-yl)phenyl)propanoic acid]"
27,< 5 nM,"O=C(O)CCc1ccc(-c2csc3c(-c4ccc(NC(=O)Nc5cccc(C(F)(F)F)c5F)cc4)ncnc23)cc1 [Example 55, 3-(4-(4-(4-(3-(2-fluoro-3-(trifluoromethyl)phenyl)ureido)phenyl)thieno[3,2-d]pyrimidin-7-yl)phenyl)propanoic acid]"
28,< 50 nM,Cn1cc(-c2ccc(CCC(=O)O)cc2)c2ncnc(-c3ccc(NC(=O)Nc4ccccc4Cl)cc3)c21 [Example 57]
29,< 1 nM,"CC(C)(C(=O)O)c1ccc(-c2csc3c(-c4ccc(NC(=O)Nc5cccc(Cl)c5)cc4)ncnc23)cc1 [Example 59, 2-(4-(4-(4-(3-(3-chlorophenyl)ureido)phenyl)thieno[3,2-d]pyrimidin-7-yl)phenyl)-2-methylpropanoic acid]"
